Assay results reported in patent publication US5877165A, “Boronated porhyrins and methods for their use” (priority 1997, dated 1999).

Tests used:
[1] = Toxicity testing of NiTCP, MnTCP and CuTCP in normal mice (Example 13, Table 3); type: in vivo, BALB/c mice; conditions: 4 days after last of 6 ip injections
Experimental: Levels of glucose [GLU], blood urea nitrogen [BUN], blood creatinine [BCR], alanine transaminase [ALT], aspartate transaminase [AST], alkaline phosphatase [ALP], total protein [TPR], albumin [ALB], and creatine phosphokinase [CPK] were determined in blood plasma using a Cobas Fara II microanalysis system. Blood platelets [PLT] and white blood cells [WBC] were counted using a Serono-Baker System 9000 automated hematology microanalyzer.
Compounds prepared as in Example 1B and 1C were formulated with 6% Cremophor EL [CRM] and 12% propylene glycol [PrG] in saline. Total doses of MnTCP and CuTCP of 174 and 223 μg/g body weight, respectively, were administered to normal BALB/c mice. Each mouse was given 6 intraperitoneal [ip] injections over a period of 32 hours. Mice were euthanized 4 days after the last injection and chemical, enzymatic and hematological analyses of their blood were compared to those of similar mice given NiTCP at a dose of 252 μg/g body weight.

[2] = Experiment I: hematological, chemical and enzymatic tests, mice bearing KHJJ tumors (Table 7); type: in vivo, BALB/c mice; conditions: 3 ip over 8 hr, ZnDPE 118, NiTCP 183 μg/gbw, median (range)
Experimental: (§1) Lipophilic porphyrins 1, 2, 4, 5, and 6 were injected as emulsions in either 3% or 9% CRM and either 6% or 18% PRG with saline as previously described in Example 2 above. Water soluble porphyrins 3 and 7 were dissolved in saline. BPA was solubilized as a fructose complex.
(§2) Female BALB/c mice (from Taconic Farms, Germantown, N.Y.) (20-25 g) were implanted with either KHJJ or EMT-6 tumors according to the procedure described in Example 3A above.
(§3) Under deep halothane anesthesia leading to euthanasia, right ventricular blood was collected in Microtainer (Becton-Dickinson, Rutherford, N.J.) tubes containing EDTA for hematological analyses and boron assays of whole blood and in Microtainer™ tubes containing lithium heparin for chemical analyses and enzyme assays of blood plasma. Tumor, brain, fat, muscle, and liver tissues were sampled at necropsy for boron analyses.
In Experiment I, NiTCP (183 μg/gbw) and lipophilic, heme derivative ZnDPE (118 μg/gbw) were compared in mice bearing KHJJ mammary tumors. The porphyrins were given as 3% CRM and 6% PrG emulsions in 3 ip injections given over 8 hrs. Animals were euthanized 15 hr, 39 hr, and 90 hr after the last injection.
(§4) Hematological, chemical and enzymatic tests were carried out as described in Example 3 above. Nonparametric statistical analyses were carried out using the Wilcoxon Two-Sample Test in accordance with procedures described in Slatkin, D.N., 1995. Boron analyses were conducted in accordance with the procedure described in Example 3 above. Fat and liver tissues were assayed for ^10 B by prompt-gamma spectroscopy as described in Fairchild, et al., 1986. These measurements were multiplied by 5.0 to give total boron concentrations due to the use of boron of natural isotope abundance in the syntheses of all boronated porphyrins reported.

EMT-6 mammary tumors = test: Experiment III: boron concentrations in tissues, mice bearing EMT-6 tumors (Table 8); design: species or system BALB/c mice; conditions: mouse, in vivo, ip, 183 mg/kg
Experimental: as §1, §2, §3
In Experiment III, NiTCP and NiTCP-H were compared in mice bearing EMT-6 mammary tumors. Each porphyrin was administered via 6 i.p. injections over a period of 32 hours and the mice were euthanized 39 hours and 90 hours after the last injection.
as §4

[3] = total doses up to 272 μg/gbw, n>80 mice (Miura et al., 1996); cited from earlier work

In the case of “Nickel Tetracarboranylphenylporphyrin [NiTCP]”, the “toxicity / thrombocytopenia, in words” value [1] is reported as “nontoxic”, the “% Δw” value ([2]; 15 hr) is reported as 0.5 (^- 3.2-4.1) % and the ALP ([2]; 15 hr) is reported as 80 (56-86). The ALT ([2]; 15 hr) was 28 (21-32), the AST ([2]; 15 hr) was 81 (60-146) and the BCR ([2]; 15 hr) was 0.5 (0.4-0.5). For the same substance, the BUN ([2]; 15 hr) was 32 (27-41), the CPK ([2]; 15 hr) was 66 (41-289) and the GLU ([2]; 15 hr) was 199 (183-262). The PLT ([2]; 15 hr) was 733 (579-956), the “% Δw” value ([2]; 39 hr) was 3.9 (3.0-9.2) % and the ALP ([2]; 39 hr) was 71 (57-88). For the same substance, the ALT ([2]; 39 hr) was 32 (27-153), the AST ([2]; 39 hr) was 108 (76-442) and the BCR ([2]; 39 hr) was 0.4 (0.3-0.4). For the same substance, the BUN ([2]; 39 hr) was 35 (32-43), the CPK ([2]; 39 hr) was 167 (91-227) and the GLU ([2]; 39 hr) was 210 (183-260). For the same substance, the PLT ([2]; 39 hr) was 826 (790-927), the “% Δw” value ([2]; 90 hr) was 7.8 (5.9-12.1) % and the ALP ([2]; 90 hr) was 40 (37-80). For the same substance, the ALT ([2]; 90 hr) was 27 (26-33), the AST ([2]; 90 hr) was 138 (46-285) and the BCR ([2]; 90 hr) was 0.4 (0.4-0.4). For the same substance, the BUN ([2]; 90 hr) was 24 (14-34), the CPK ([2]; 90 hr) was 69 (52-94) and the GLU ([2]; 90 hr) was 218 (172-242). The PLT ([2]; 90 hr) was 790 (553-839), the “Boron concentration, Blood” value (EMT-6 mammary tumors; 39 h) was 2.8 (0.8-11.4) μg B/g and the “Boron concentration, Brain” value (EMT-6 mammary tumors; 39 h) was 1.6 (1.0-2.5) μg B/g. The “Boron concentration, Liver” value (EMT-6 mammary tumors; 39 h) was 201 (162-251) μg B/g, the “Boron concentration, Tumor” value (EMT-6 mammary tumors; 39 h) was 40 (26-73) μg B/g and the “Boron concentration, Blood” value (EMT-6 mammary tumors; 90 h) was 0.3 (0.1-0.3) μg B/g. The “Boron concentration, Brain” value (EMT-6 mammary tumors; 90 h) was 4.2 (1.3-6.0) μg B/g, the “Boron concentration, Liver” value (EMT-6 mammary tumors; 90 h) was 226 (176-284) μg B/g and the “mortality and toxicity, in words” value [3] was “no mortality (n>80) nor any substantial toxicity”.
